Assay [1] addresses T1, Human immunodeficiency virus type 1 integrase (Human immunodeficiency virus 1, UniProt Q7ZJM1).
Description: Strand transfer inhibitory activity against HIV-1 integrase
Assay [2] addresses T1, Human immunodeficiency virus type 1 integrase. Description: In vitro concentration required to inhibit the HIV-1 integrase 3'-processing.
Assay [3] deals with MT4. Description: Cytotoxic concentration required to reduce MT-4 cell viability. It is filed as functional. Particulars: Homo sapiens.
Assay [4] has as its target T1, Human immunodeficiency virus type 1 integrase. Description: In vitro concentration required to inhibit the overall HIV-1 integrase strand transfer.
The subject of assay [5] is Human immunodeficiency virus 1. Put plainly: Effective concentration required to reduce HIV-1-induced cytopathic effect in MT-4 cells. Format: functional, organism-based. Particulars: Human immunodeficiency virus 1, MT4.
The test system of assay [6] is MT4. Put plainly: Selectivity index was measured by the ratio of CC50/EC50. It is filed as functional.
For assay [7], the target named is T1, Human immunodeficiency virus type 1 integrase. Put plainly: In vitro concentration required to inhibit the HIV-1 integrase strand transfer.

Molecules are shown by their SMILES.

T1 sequence (Q7ZJM1 whole entry): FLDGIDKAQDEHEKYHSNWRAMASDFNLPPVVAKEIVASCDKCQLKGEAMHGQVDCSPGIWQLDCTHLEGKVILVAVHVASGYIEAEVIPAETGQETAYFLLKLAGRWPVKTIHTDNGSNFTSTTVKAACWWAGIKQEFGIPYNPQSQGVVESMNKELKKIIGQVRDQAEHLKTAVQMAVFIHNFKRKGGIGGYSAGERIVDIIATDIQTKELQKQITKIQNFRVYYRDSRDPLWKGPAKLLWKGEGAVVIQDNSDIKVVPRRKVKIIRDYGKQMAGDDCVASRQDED

`O=C(O)C(=O)/C=C(\O)c1ccc(Oc2ccccc2)cc1`: in assay [1], the IC50 worked out at 11.4 µM.

`O=C(O)C(=O)/C=C(\O)c1cn(Cc2ccccc2)c2ccccc12`: the IC50 in assay [2] was 8.28 µM; in assay [4] it was 0.02 µM; in assay [7] it was 0.03 µM. Also, the CC50 with MT4 [3] is above 78 µM. Besides, the EC50 in assay [5] turned out to be 19.9 µM. The Selectivity index in the assay on MT4 [6] is above 4.

As for `CCCCOC(=O)C(=O)/C=C(\O)c1cccn1Cc1ccc(F)cc1`, the IC50 in assay [1] amounted to 100 µM.

On to `O=C(O)C(=O)/C=C(\O)c1cccc(Cc2ccccc2)c1`, for which half-maximal inhibition in assay [1] (IC50) was put at 0.01 µM.

Turning to `CCOC(=O)C(=O)/C=C(\O)c1cn(Cc2ccccc2)c2ccc(OC)cc12`, the IC50 in assay [2] was 162 µM; in assay [4], 0.15 µM; in assay [7] it was 0.68 µM. It took 29 µM to reach half-maximal cytotoxicity in the assay on MT4 [3] (CC50). This molecule also came in with an EC50 in assay [5] of 6.07 µM. For the same molecule, the Selectivity index in the assay with MT4 [6] is 5.

Regarding `O=C(O)C(=O)/C=C(\O)c1cn(Cc2ccccc2)c2ccc(Cl)cc12`, the IC50 was determined as 0.97 µM in assay [2], 0.01 µM in assay [4] and 0.1 µM in assay [7]. Moreover, half-maximal cytotoxicity in the assay on MT4 [3] (CC50) was put at 37.2 µM. The same molecule registered an EC50 in assay [5] of 4.78 µM. In the assay with MT4 [6], the Selectivity index was found to be 8.

As for `COc1ccc(Cc2ccccc2)cc1/C(O)=C/C(=O)C(=O)O`, in assay [1], the IC50 is 0.1 µM.

As to `COc1ccc2c(c1)c(/C(O)=C/C(=O)C(=O)O)cn2Cc1ccc(F)cc1`, the IC50 in assay [2] was 2.71 µM; in assay [4], 0.019 µM; in assay [7], 0.004 µM. In addition, half-maximal cytotoxicity in the assay with MT4 [3] (CC50) was put at 63.5 µM. For the same molecule, the EC50 in assay [5] came out at 5.81 µM. In the assay on MT4 [6], the Selectivity index amounted to 11.

The molecule `O=C(O)C(=O)/C=C(\O)c1ccc(Cc2ccccc2)s1` returned an IC50 in assay [1] of 0.5 µM.

For `COc1ccc2c(c1)c(/C(O)=C/C(=O)C(=O)O)cn2Cc1ccccc1`, the IC50 in assay [2] was determined as 2.16 µM; in assay [4], 0.017 µM; in assay [7] it was 0.021 µM. In addition, in the assay with MT4 [3], the CC50 stood at 86.4 µM. Besides, the EC50 in assay [5] came out at 5.32 µM. Also, the Selectivity index in the assay on MT4 [6] turned out to be 16.

`CCOC(=O)C(=O)/C=C(\O)c1cn(Cc2ccccc2)c2ccc(Cl)cc12`: the values for the IC50 in assay [2], in assay [4] and in assay [7] were 10.2 µM, 0.22 µM and 0.03 µM, respectively. The CC50 in the assay on MT4 [3] was 34 µM. The EC50 in assay [5] is 4.5 µM. For the same molecule, the Selectivity index with MT4 [6] is 8.

Turning to `CCOC(=O)C(=O)/C=C(\O)c1cn(Cc2ccc(F)cc2)c2ccccc12`, the values for the IC50 in assay [2], in assay [4] and in assay [7] were above 272 µM, 1.2 µM and 1.5 µM, respectively. In addition, the CC50 in the assay on MT4 [3] was 27.2 µM. The molecule also gave an EC50 in assay [5] of 9.25 µM. Also, the Selectivity index in the assay with MT4 [6] amounted to 3.

On to `COc1ccc(/C(O)=C/C(=O)C(=O)O)cc1Cc1ccccc1`, for which the IC50 in assay [1] came out at 0.15 µM.

In assay [1], `O=C(O)C(=O)/C=C(\O)c1ccsc1Cc1ccccc1` came in with an IC50 of 0.18 µM.

The molecule `O=C(O)C(=O)/C=C(\O)c1cccc(Cc2cccc(F)c2)c1` registered an IC50 in assay [1] of 0.25 µM.

For `O=C(O)C(=O)/C=C(\O)c1cn(Cc2ccc(F)cc2)c2ccccc12`, the IC50 is 5.3 µM in assay [2], 0.002 µM in assay [4] and 0.015 µM in assay [7]. Further, the CC50 in the assay with MT4 [3] is above 74 µM. This molecule also had an EC50 in assay [5] of 5.31 µM. The Selectivity index with MT4 [6] was above 14.

Take `O=C(O)C(=O)/C=C(\O)c1cccc(Br)c1`: the IC50 in assay [1] was 2.5 µM.

In turn, `O=C(O)C(=O)/C=C(\O)c1cc(OCc2ccccc2)cc(OCc2ccccc2)c1` had an IC50 in assay [1] of 0.1 µM.

Regarding `CCOC(=O)C(=O)/C=C(\O)c1cn(Cc2ccccc2)c2ccccc12`, the IC50 in assay [2] is above 286 µM; in assay [4], 0.76 µM; in assay [7], 5.4 µM. This molecule registered a CC50 in the assay on MT4 [3] of 120 µM. This molecule also showed an EC50 in assay [5] of 14.3 µM. Further, in the assay on MT4 [6], the Selectivity index is 8.

For the molecule `O=C(O)C(=O)/C=C(\O)c1cn(Cc2ccc(F)cc2)c2ccc(Cl)cc12`, the results for the IC50 in assay [2], in assay [4] and in assay [7] were 1.59 µM, 0.2 µM and 0.01 µM, respectively. This molecule also had a CC50 in the assay on MT4 [3] of 53.4 µM. In addition, in assay [5], a half-maximal effect (EC50) was put at 2.78 µM. Besides, the Selectivity index in the assay on MT4 [6] stood at 19.

On to `CCOC(=O)C(=O)/C=C(\O)c1cn(Cc2ccc(F)cc2)c2ccc(Cl)cc12`, for which the IC50 in assay [2] is 11.5 µM; in assay [4], 0.39 µM; in assay [7], 0.07 µM. Moreover, the midpoint of cytotoxicity in the assay on MT4 [3], the CC50, lay at 26.5 µM. Besides, the EC50 in assay [5] came out at 3.42 µM. Further, in the assay with MT4 [6], the Selectivity index came out at 8.

Consider `COc1cc(Cc2ccccc2)cc(/C(O)=C/C(=O)C(=O)O)c1`, for which, in assay [1], half-maximal inhibition (IC50) required 0.14 µM.

As for `CC(C)OC(=O)C(=O)/C=C(\O)c1cccn1Cc1ccc(F)cc1`, the IC50 in assay [1] came out at 100 µM.

In assay [1], `CCC(=O)C(=O)/C=C(\O)c1c[nH]c2ccc(Cl)cc12` had an IC50 of 6.9 µM.

In the case of `O=C(O)C(=O)/C=C(\O)c1cccn1Cc1ccccc1`, the IC50 in assay [1] worked out at 0.22 µM.

`CCOC(=O)C(=O)/C=C(\O)c1cn(Cc2ccc(F)cc2)c2ccc(OC)cc12`: the IC50 in assay [2] was 131 µM; in assay [4], 0.22 µM; in assay [7] it was 0.8 µM. Further, half-maximal cytotoxicity with MT4 [3] (CC50) was put at 127 µM. This molecule also had an EC50 in assay [5] of 14.3 µM. Further, in the assay with MT4 [6], the Selectivity index was 9.

The molecule `NC(=O)C(=O)Nc1nc(C(=O)NCc2ccc(F)cc2)c(O)c2ncccc12` showed an IC50 in assay [1] of 0.04 µM.

Turning to `O=C(NCc1ccc(F)cc1)c1nc(N2CCCCS2(=O)=O)c2cccnc2c1O`, the values for the IC50 in assay [2], in assay [4] and in assay [7] were 0.12 µM, 0.0005 µM and 0.0025 µM, respectively. In the assay on MT4 [3], this molecule yielded a CC50 of 2.15 µM. In assay [5], the EC50 was determined as 0.0047 µM. In addition, the Selectivity index in the assay on MT4 [6] was determined as 457.

In turn, `O=C(O)C(=O)/C=C(\O)c1ccnc2ccccc12` returned an IC50 in assay [1] of 100 µM.

In assay [1], `O=C(/C=C(\O)c1c[nH]c2ccc(Cl)cc12)c1nc[nH]n1` yielded an IC50 of 2 µM.

The IC50 is the concentration at which inhibition is half-maximal. Read a high IC50 as weaker potency. Broadly, the CC50 is the concentration that lowers cell viability or growth by half. A higher CC50 goes with lower toxicity to the cells. In general, EC50 refers to the concentration giving half of the maximal effect. Read a high EC50 as a less potent agent.

For the origin of these results see ChEMBL document CHEMBL1140386, “Pharmacophore-based design of HIV-1 integrase strand-transfer inhibitors” (J Med Chem, 2005).
